Consider two molecules from patent US7396655B2, “Method for enhancing activity of luciferase with fluorescence activity” (Chisso Corporation, priority 2005, dated 2008).

Assay [1] concerns the target T1, BFP-aq (Aequorea victoria, UniProt P07164). The class given is biochemical. The conditions noted are these: pH 8.0. On the set-up: The recombinant apoaequorins encoded by piP-HE is composed of 191 amino acids, whose N-terminus starts from Ala-Asn-Ser-; made in house; host or cells: E. coli strain WA802. How it is done: (§1) 50 mM Tris-HCl (pH 8.0) containing imidazole at various concentrations (0. 1, 0.3, 1, 3, 10, 30, 60, 100, 150, 200, 250, 300, 400, 500, 600, 700, 800, 900, and 1000 mM) was prepared and pre-warmed at 25° C. The substrate coelenterazine (1 μg) was added to each imidazole-containing solution (200 μl).
(§2) As a control experiment, the same experiment was conducted using Renilla reniformis luciferase, which contains coelenterazine as luminescent substrate.

Assay [2] concerns the target T2, Renilla reniformis luciferase (Renilla reniformis, UniProt P27652).
T2 construct: histidine tag (N); made in house; host or cells: E. coli Top10
T2 sequence (P27652 1-311): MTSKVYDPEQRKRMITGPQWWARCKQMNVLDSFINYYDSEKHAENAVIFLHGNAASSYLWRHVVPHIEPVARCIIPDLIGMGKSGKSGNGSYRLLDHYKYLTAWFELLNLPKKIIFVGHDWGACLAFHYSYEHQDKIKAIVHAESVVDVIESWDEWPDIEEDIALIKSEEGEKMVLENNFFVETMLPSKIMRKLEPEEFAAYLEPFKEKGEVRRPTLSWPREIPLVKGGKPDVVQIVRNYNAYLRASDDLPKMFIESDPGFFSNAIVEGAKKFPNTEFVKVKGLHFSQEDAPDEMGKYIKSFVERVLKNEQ
Briefly: Control experiment: Renilla reniformis luciferase luminescence with imidazole. The class given is biochemical. The conditions noted are these: increasing concentrations of imidazole. How it is done: Renilla reniformis luciferase, a monomeric luciferase (36 kDa) derived from Renilla reniformis, catalyzes oxidation of the substrate coelenterazine to trigger light emission.
50 mM Tris-HCl buffer (200 μl), pH 7.6, was pre-warmed at 25° C., to which the substrate coelenterazine (1 μg/μl) dissolved in ethanol was added. A light-emitting reaction was triggered by adding Renilla reniformis luciferase (1.2 μg). […] The measured values were represented as the maximum intensity (Imax) of luminescence activity.
As a control experiment, the same experiment was conducted using Renilla reniformis luciferase, which contains coelenterazine as luminescent substrate. […] That is, it was shown that the enhancing effect on luminescence activity by the addition of imidazole is specific for BFP-aq.

The target of assay [3] is T3, BFP-aq, luciferase with fluorescence activity derived from aequorin (recombinant apoaequorin, SEQ ID NO: 1 with N-terminal Val replaced by Ala-Asn-Ser); complex (Aequorea victoria, UniProt P02592).
T3 construct: The recombinant apoaequorins encoded by piP-HE is composed of 191 amino acids, whose N-terminus starts from Ala-Asn-Ser-; made in house; host or cells: E. coli strain WA802 (expression vector piP-HE)
T3 sequence (P02592 with tags, fused parts or gaps): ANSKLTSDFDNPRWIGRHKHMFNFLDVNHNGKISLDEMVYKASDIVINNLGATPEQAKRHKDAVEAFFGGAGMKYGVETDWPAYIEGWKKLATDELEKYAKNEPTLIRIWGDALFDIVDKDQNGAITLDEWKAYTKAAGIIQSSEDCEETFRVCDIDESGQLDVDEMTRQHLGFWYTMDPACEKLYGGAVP
Nature of the assay: Optimal imidazole concentration for enhancing BFP-aq luminescence (FIG. 5). The note with it: pH 8.0, 25° C., coelenterazine substrate; compared with no imidazole. The class given is biochemical. On the procedure:
50 mM Tris-HCl (pH 8.0) containing imidazole at various concentrations (0. 1, 0.3, 1, 3, 10, 30, 60, 100, 150, 200, 250, 300, 400, 500, 600, 700, 800, 900, and 1000 mM) was prepared and pre-warmed at 25° C. The substrate coelenterazine (1 μg) was added to each imidazole-containing solution (200 μl). […] Assuming that the maximum intensity activity (Imax) of BFP-aq luminescence activity in 50 mM Tris-HCl (pH 8.0) is 100%, the relative luminescence activity values are shown in FIG. 5.

The target of assay [4] is T3, BFP-aq, luciferase with fluorescence activity derived from aequorin (recombinant apoaequorin, SEQ ID NO: 1 with N-terminal Val replaced by Ala-Asn-Ser); complex. Nature of the assay: Light-emitting reaction rate of BFP-aq, Lineweaver-Burk plot (Table 6). The class given is biochemical. The conditions noted are these: with or without 150 mM imidazole.
Assay [5] has as its target T1, BFP-aq. The note with it: with vs without 150 mM imidazole.
Method: Then, luminescence activity was measured with the luminometer Luminescencer-PSN AB2200 (manufactured by Atto Co., Ltd.) for 60 seconds. Using the luminescence activity for the first 3 sec of the light-emitting reaction as the initial reaction rate, Km values were determined by the Lineweaver-Burk plot method.
The target in assay [6] is T4, Renilla reniformis luciferase (recombinant, N-terminal histidine tag) (Renilla reniformis, UniProt P27652).
T4 sequence (P27652 1-311): T2 sequence (P27652 1-311)
Briefly: Effect of imidazole on Renilla reniformis luciferase luminescence (control, FIG. 5). The class given is biochemical. The note with it: increasing concentrations of imidazole (0.1 to 1000 mM), pH 8.0, coelenterazine substrate. How it is done: as §1, §2

Assay [7] addresses T1, BFP-aq. Nature of the assay: biochemical. The class given is biochemical. Further details: The recombinant apoaequorins encoded by piP-HE is composed of 191 amino acids, whose N-terminus starts from Ala-Asn-Ser-; made in house; host or cells: E. coli strain WA802. How it is done:
Solutions of 50 mM Tris-HCl (pH 8.0), each containing various commercial organic compounds shown in Table 3, were prepared and pre-warmed at 25° C. The substrate coelenterazine (1 μg) was added to the solutions (200 μl) containing each of these compounds.

Assay [8] concerns the target T3, BFP-aq, luciferase with fluorescence activity derived from aequorin (recombinant apoaequorin, SEQ ID NO: 1 with N-terminal Val replaced by Ala-Asn-Ser); complex. Briefly: Luminescence of BFP-aq with coelenterazine and analogs, with/without imidazole (Table 5). The note with it: without imidazole; pH 8.0; coelenterazine without imidazole = 100%. The class given is biochemical. On the procedure: 200 μl of this solution was placed in five vessels, to each of which 1 μg of the substrate coelenterazine (CTZ) and its four analogs: h-CTZ, cp-CTZ, hcp-CTZ, f-CTZ were added. […] Assuming that the maximum intensity activity (Imax) and initial velocity of BFP-aq luminescence activity in 50 mM Tris-HCl (pH 8.0) was 100%, the effect of the addition of imidazole on luminescence activity was examined.

Setting [9] is: pH 8, read-out: Luminescence activity (%) Imax.
Setting [10] is: pH 8, read-out: Luminescence activity (%) Initial velocity.

“Also recorded” adds a separate entry of the source. Where two headings read alike, the source gives them in different places.

Consider `c1c[nH]cn1` [Imidazole], for which the “Luminescence activity compared with the system without imidazole” value at BFP-aq [1] (150 mM imidazole) is reported as “more than two-fold”. In addition, the “Effect on luminescence activity of BFP-aq” value at BFP-aq [1] (30 to 250 mM imidazole) was “enhanced”. The “Effect on luminescence activity of Renilla reniformis luciferase” value in assay [2] was “remarkably inhibited”. The “Luminescence activity of BFP-aq with imidazole, in words” value in assay [3] is listed as “enhanced at 30 to 250 mM imidazole; also recorded: more than two-fold of the luminescence activity”. In assay [4], the “Km change with imidazole, in words” value was “no marked changes were found in the Km values” and the “Vmax change with imidazole, in words” value is “only Vmax was doubled in the system with imidazole”. Also, on BFP-aq [5], the “Change of Km values” was “no marked changes” and the “Change of Vmax” value is “doubled”. The “Luminescence activity of Renilla reniformis luciferase with imidazole, in words” value in assay [6] is “remarkably inhibited with increasing concentrations of imidazole”. On BFP-aq [7] (setting [9]), the activity at 30000 µM came to 148% and the activity at 150000 µM came to 199%. Moreover, at BFP-aq [7] (setting [10]), the activity at 30000 µM worked out at 153% and the activity at 150000 µM worked out at 205%. Besides, on BFP-aq [7] (pH 8.0, Table 4 comparison), the “Enhancement of BFP-aq luminescence activity (Imax), in words” value is reported as “marked luminescence activity (Imax) occurs only when 150 mM imidazole was added”.
As for `O=c1c(Cc2ccc(O)cc2)nc2c(CC3CCCC3)[nH]c(-c3ccc(O)cc3)cn1-2` [cp-Coelenterazine, cp-coelenterazine], the “Relative luminescence activity, Imax” value in assay [8] is 54%.
